This note sets out measurements from patent US6096529A, “Recombinant α-2,3-sialyltransferases and their uses” (priority 1997, dated 2000).

The inhibition is the change of the read-out against control, counted positive when it falls.

Common to all, as to assay type: biochemical
Series [1] deals with T1, N. meningitidis α-2,3-sialyltransferase (Neisseria meningitidis serogroup B, UniProt P72097). Description: Coupled sialylation of FCHASE-LacNAc with Neu5Ac, Neu5Pr or Neu5Gc and CMP-Neu5Ac synthetase. On the set-up: made in house; host or cells: E. coli BMH71-18/pNST-18. The note with it: for use as alternate donor, rate: compared with Neu5Ac; for time to complete conversion of the acceptor (FCHASE-LacNAc): coupled reaction with CMP-Neu5Ac synthetase. As for the experimental part:
Sialylation of FCHASE-thio-N-acetyllactosamine with N-acetyl-, N-propionyl and N-glycolyl-Neuraminic Acid--The 50 μL reaction mixtures included […] acceptor, and 2 mM of either Neu5Ac, Neu5Gc or Neu5Pr, in 100 mM Tris pH 7.5. 0.2 mM DTT, 10 mM MgCl2, […], with 50 mU inorganic pyrophosphatase (Sigma). 47 mU CMP-Neu5Ac synthetase, 5 mU purified α-2,3-sialyl-transferase. […] The masses of the sialylated products were measured in the negative ion mode on a VG Quattro triple quadrupole mass spectrometer (Fisons Instruments).
Target sequence in this assay (P72097 2-371): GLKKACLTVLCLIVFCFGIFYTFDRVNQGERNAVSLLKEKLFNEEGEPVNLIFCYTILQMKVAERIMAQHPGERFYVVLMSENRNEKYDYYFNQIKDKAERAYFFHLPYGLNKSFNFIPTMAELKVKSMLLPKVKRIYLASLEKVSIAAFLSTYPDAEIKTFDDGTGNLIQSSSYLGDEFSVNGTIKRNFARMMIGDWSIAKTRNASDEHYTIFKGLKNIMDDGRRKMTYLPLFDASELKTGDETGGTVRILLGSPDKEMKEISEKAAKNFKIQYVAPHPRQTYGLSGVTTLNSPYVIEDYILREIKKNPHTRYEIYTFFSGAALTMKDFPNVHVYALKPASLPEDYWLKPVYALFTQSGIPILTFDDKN

Series [2] concerns the target T2, purified recombinant α-2,3-sialyltransferase (Neisseria meningitidis serogroup B, UniProt P72097).
T2 construct: made in house; host or cells: E. coli BMH71-18/pNST-18
Description: Enzymatic properties of the purified recombinant α-2,3-sialyltransferase (standard assay). The following applies: for inhibition at 1000 µM: 1 mM, standard assay; for activity stimulated by presence: 20 mM. As for the experimental part: (§1) Measurement of Sialyltransferase Activity and Survey of Oligosaccharide Acceptors--FCHASE-labelled oligosaccharides were prepared as described above, while the APTS-labelled oligosaccharides were prepared by reductive amination of reducing saccharides according to the method described by Guttman et at. (Anal. Biochem233:234 (1996)) The Gal-β-APTS acceptor was derived from labelling of lactose; the Gal-α-APTS acceptor was derived from labelling of melibiose; the N-acetyllactosamine (LacNAc) acceptor was synthesized by APTS labelling of chitobiose, followed by enzymatic modification with bovine β-Galactosyl transferase to produce the LacNAc moiety-, the Gal-α-1.4-Gal-β acceptor was enzymatically synthesized from β-Gal-APTS with the α-1,4-galactosyltransferase from N. meningitidis. All of the reductive amination products were purified by gel permeation chromatography on Toyopearl HW4OF (Sigma-Aldrich), 1.5 cm×15 cm column, using water as the eluant. It should be mentioned that all of these molecules have the terminal reducing sugar ring opened in the process of labelling. APTS-saccharides were quantitated by measuring the A455, and using an extinction coefficient of 17160 M^-1 cm^-1 . The TMR-labelled oligosaccharides were prepared as described by Zhao et al. (1994) Glycobiology 4:239-242. For the TMR labelled acceptors we used an extinction coefficient of 80,000 M^-1 cm^-1 for quantitation. The sialyltransferase activity was routinely measured using 0.5 mM FCHASE-N-acetyllactosamine as the acceptor and the assay conditions as described above. For measurement of Km, and kcat values, assays were performed with the APTS labelled saccharides at room temperature. Assays were monitored so that for all acceptor concentrations, no more than 10% conversion to product occurred. The ranges of acceptor and donor concentrations were determined empirically, then a range spanning 0.2Km, up to 5Km, was used to obtain the values. Data were examined using the Grafit™3.0 software package (Erithacus Software, London, UK).
(§2) The reaction mixtures from the FCHASE- and APTS-labelled acceptors were analyzed by capillary electrophoresis performed with a Beckman instruments (Fullerton, Calif.) P/ACE 5510 equipped with a 3 mW Argon-ion laser induced fluorescence detector, λ excitation=488 nm λ emission=520 nm. The Capillary was of bare silica 75 μ X 57 cm, with the detector at 50 cm. The capillary was conditioned before each run by washing with 0.2 M NaOH for 2 min., water for 2 min., and either 20 mM sodium phosphate buffer, pH 7.4 or sodium tetraborate, pH 9.3, 2 min. Samples were introduced by pressure injection for 2-5 seconds, and the separation was performed at 18 kV, 75 μA. Peak integration was performed with the Beckman PACE-Station software (version 1).

Series [3] concerns the target T2, purified recombinant α-2,3-sialyltransferase. Description: Determination of kinetic constants with APTS-labelled acceptors. The note with it: for kcat IKm: apparent, APTS-labelled acceptor, CMP-Neu5Ac 200 μM. As for the experimental part:
as §1, §2

Series [4] concerns the target T1, N. meningitidis α-2,3-sialyltransferase. More on the design: b112 rows possibly recombinant MC58 lst (pNST-01) in E. coli extracts. The following applies: for activity stimulated by addition: 10 mM, enzyme from N. meningitidis extracts; for ratios of activity as acceptor: synthetic saccharide acceptors, relative to FCHASE-aminophenyl-LacNAc. As for the experimental part: Measurement of Sialyltransfrase Activity--The sialyltransferase activity from N. meningitidis MC58L3, 406Y L3 and M982B L7, and the E. coli carrying pNST plasmids was measured in toluene treated cells or cell free extracts prepared as described previously (Wakarchuk, et al. (1996) J. Biol. Chem. in Press) acceptors were derived from aminophenylglycosides reacted with 6(5-fluorescein-carboxamnido)-hexanoic acid succimidyl ester (FCHASE) and were prepared as previously described (Wakarchuk, et al. (1996) J. Biol. Chem. in Press). Reactions for the enzyme were performed at 37° C. in 20 μl of MES buffer, 50 mM pH 6.0, 10 mM MnCl2, with 0.2 or 1.0 mM labeled acceptor, 0.2 mM CMP-Neu5Ac donor and various amounts of enzyme, either from crude bacterial extracts, or extracts of recombinant E. coli with the cloned gene. The recombinant enzymes were assayed for 10-120 minutes, while extracts from N. meningitidis were incubated 1-15 h. The reactions were terminated by diluting the reaction 1:100 with 10 mM NaOH. These samples were then diluted appropriately in water prior to analysis by capillary electrophoresis.
Capillary electrophoresis (CE) and was performed with a Beckman (Fullerton, Calif.) P/ACE 5510 equipped with a 3 mW Argon-ion laser induced fluorescence detector, λ excitation=488 nm, λ emission=520 nm. The capillary was bare silica 75 μ X 47 cm, with the detector at 40 cm. The capillary was conditioned before each run by washing with 0.2 M NaOH for 2 min., water for 2 min., and 25 mM sodium tetraborate pH 9.4 for 2 min. Samples were introduced by pressure injection for 2-5 seconds, and the separation was performed at 15 kV, 75 μA. Peak integration was performed with the Beckman System Gold (version 8.1) software.
Target sequence in this assay (P72097 whole entry Q29H/E40D/N94K/T242A/K273N): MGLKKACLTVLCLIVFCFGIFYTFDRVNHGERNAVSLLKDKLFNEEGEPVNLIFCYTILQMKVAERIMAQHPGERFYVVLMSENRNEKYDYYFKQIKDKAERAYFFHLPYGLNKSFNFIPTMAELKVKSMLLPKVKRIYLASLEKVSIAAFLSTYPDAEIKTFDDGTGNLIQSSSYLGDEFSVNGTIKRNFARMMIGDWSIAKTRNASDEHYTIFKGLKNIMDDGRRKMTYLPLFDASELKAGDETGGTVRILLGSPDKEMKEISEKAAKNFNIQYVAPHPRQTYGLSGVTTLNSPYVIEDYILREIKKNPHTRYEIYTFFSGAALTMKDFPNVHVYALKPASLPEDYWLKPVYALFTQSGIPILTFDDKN

Series [5] has as its target T2, purified recombinant α-2,3-sialyltransferase. Description: Survey of oligosaccharide acceptors (qualitative, CE or TLC). As for the experimental part:
Measurement of Sialyltransferase Activity and Survey of Oligosaccharide Acceptors--FCHASE-labelled oligosaccharides were prepared as described above, while the APTS-labelled oligosaccharides were prepared by reductive amination of reducing saccharides according to the method described by Guttman et at. […] APTS-saccharides were quantitated by measuring the A455, and using an extinction coefficient of 17160 M^-1 cm^-1 . […] For the TMR labelled acceptors we used an extinction coefficient of 80,000 M^-1 cm^-1 for quantitation. The sialyltransferase activity was routinely measured using 0.5 mM FCHASE-N-acetyllactosamine as the acceptor and the assay conditions as described above. […] Assays were monitored so that for all acceptor concentrations, no more than 10% conversion to product occurred. The ranges of acceptor and donor concentrations were determined empirically, then a range spanning 0.2Km, up to 5Km, was used to obtain the values. […]
The reaction mixtures from the FCHASE- and APTS-labelled acceptors were analyzed by capillary electrophoresis performed with a Beckman instruments (Fullerton, Calif.) P/ACE 5510 equipped with a 3 mW Argon-ion laser induced fluorescence detector, λ excitation=488 nm λ emission=520 nm. […]

T2 sequence (P72097 2-371): as the sequence (P72097 2-371) above

For the molecule `CCC(=O)N[C@H]1[C@H]([C@H](O)[C@H](O)CO)OC(O)(C(=O)O)C[C@@H]1O` (some centres unmarked) [Neu5Pr, N-propionyl-Neuraminic Acid], in series [1], the “use as alternate donor, rate” value is reported as “rates lower than with Neu5Ac” and the “time to complete conversion of the acceptor (FCHASE-LacNAc)” value turned out to be 90 min.

On to `Nc1ccn([C@@H]2O[C@H](COP(=O)(O)O)[C@@H](O)[C@H]2O)c(=O)n1` [CMP], for which, in series [2], the inhibition at 1000 µM was found to be 80%.

Turning to `CC(=O)N[C@H]1[C@H]([C@H](O)[C@H](O)CO)O[C@](OP(=O)(O)OC[C@H]2O[C@@H](n3ccc(N)nc3=O)[C@H](O)[C@@H]2O)(C(=O)O)C[C@@H]1O` [CMP-Neu5Ac], the substrate inhibition result in series [3] (as high as 1 mM CMP-Neu5Ac) is reported as “No significant substrate inhibition”.

As for `O[C@H](CS)[C@H](O)CS` (racemic) [DTT, dithiothreitol], the “effect on the activity” value in series [2] (1-20 mM range) is “no effect”.

`[Cl][Mn][Cl]` [MnCl2]: in series [4], the “activity stimulated by addition” value is reported as 3 fold. In series [2] (purified enzyme), the “activity stimulated by presence” value came out at 4 fold.

For `CC(=O)N[C@H]1[C@H](O[C@@H]([C@H](O)[C@H](CNc2cc(S(=O)(=O)O)c3ccc4c(S(=O)(=O)O)cc(S(=O)(=O)O)c5ccc2c3c54)NC(C)=O)[C@H](O)CO)O[C@H](CO)[C@@H](O[C@@H]2O[C@H](CO)[C@H](O)[C@H](O)[C@H]2O)[C@@H]1O` [LacNAc, Gal-β-(1→4)-β-GlcNAc-β-GlcNAc*], in series [3], the “kcat IKm” value is 1750 M⁻¹ s⁻¹. In addition, the “increase of apparent Kcat/Km” value in series [3] (relative to the terminal Gal-β monosaccharide acceptor) is listed as 5 fold.

`O=S(=O)(O)c1cc(NC[C@H](O)[C@@H](O)[C@H](O[C@@H]2O[C@H](CO)[C@H](O[C@H]3O[C@H](CO)[C@H](O)[C@H](O)[C@H]3O)[C@H](O)[C@H]2O)[C@H](O)CO)c2ccc3c(S(=O)(=O)O)cc(S(=O)(=O)O)c4ccc1c2c34` [P^k, Gal-α-(1→4)-Gal-(1→4)-β-Glc*]: the “kcat IKm” value in series [3] was determined as 93.3 M⁻¹ s⁻¹.

`O=S(=O)(O)c1cc(NC[C@H](O)[C@@H](O)[C@H](O[C@@H]2O[C@H](CO)[C@H](O)[C@H](O)[C@H]2O)[C@H](O)CO)c2ccc3c(S(=O)(=O)O)cc(S(=O)(=O)O)c4ccc1c2c34` [Gal-β-(1→4)-Glc, Gal-β-(1→4)-Glc*]: in series [3], the “kcat IKm” value was determined as 367 M⁻¹ s⁻¹.

For `O=C(CCCCCNC(=O)c1ccc(-c2c3ccc(=O)cc-3oc3cc(O)ccc23)c(C(=O)O)c1)Nc1ccc(OC2O[C@H](CO)[C@H](O)[C@H](O)[C@H]2O)cc1` (some centres unmarked) [FCHASE-aminophenyl-Gal], the “ratios of activity as acceptor” value in series [4] was 0.03.

As for `CC(=O)N[C@H]1[C@H](Oc2ccc(NC(=O)CCCCCNC(=O)c3ccc(-c4c5ccc(=O)cc-5oc5cc(O)ccc45)c(C(=O)O)c3)cc2)O[C@H](CO)[C@@H](O[C@@H]2O[C@H](CO)[C@H](O)[C@H](O)[C@H]2O)[C@@H]1O` [FCHASE-aminophenyl-LacNAc], the “ratios of activity as acceptor” value in series [4] is on record as 1.

In the case of `O=C(CO)N[C@H]1[C@H]([C@H](O)[C@H](O)CO)OC(O)(C(=O)O)C[C@@H]1O` (some centres unmarked) [Neu5Gc, 5-N-glcolylneuraminic acid], in series [1] (after 120 min of incubation), the “conversion of the acceptor” value is on record as “above 90%”. For the same molecule, in series [1], the “use as alternate donor, rate” value is reported as “rates lower than with Neu5Ac”.

For the molecule `O=S(=O)(O)c1cc(NC[C@H](O)[C@@H](O)[C@H](O)[C@H](O)CO[C@H]2O[C@H](CO)[C@H](O)[C@H](O)[C@H]2O)c2ccc3c(S(=O)(=O)O)cc(S(=O)(=O)O)c4ccc1c2c34` [Gal-α-(1→6)-Gal, Gal-α-(1→6)-Gal*], the “kcat IKm” value in series [3] amounted to 517 M⁻¹ s⁻¹.

In the case of `[Cl-].[Cl-].[Mg+2]` [MgCl2], the “activity stimulated by addition” value in series [4] was found to be 2 fold. In series [2] (purified enzyme), the “activity stimulated by presence” value is listed as 3 fold.

As to `O=C(CCCCCNC(=O)c1ccc(-c2c3ccc(=O)cc-3oc3cc(O)ccc23)c(C(=O)O)c1)Nc1ccc(O[C@@H]2O[C@H](CO)[C@@H](O[C@@H]3O[C@H](CO)[C@H](O)[C@H](O)[C@H]3O)[C@H](O)[C@H]2O)cc1` [FCHASE-aminophenyl-Lac], in series [4], the “ratios of activity as acceptor” value is listed as 0.29.

Triton X-100: the “effect of detergents on the enzyme” value in series [4] (Triton X-100 up to 0.2%) is recorded as “exception”.

Take `Nc1ccn([C@@H]2O[C@H](COP(=O)(O)OP(=O)(O)O)[C@@H](O)[C@H]2O)c(=O)n1` [CDP]: the inhibition at 1000 µM in series [2] stood at 40%.

For the molecule `O=C(O)CN(CCN(CC(=O)O)CC(=O)O)CC(=O)O` [EDTA], the “activity in the presence of EDTA” value in series [4] (5 mM EDTA) is given as “active”; in series [2] (5 mM EDTA, purified enzyme), “still active”.

As to `O=C(CCCCCNC(=O)c1ccc(-c2c3ccc(=O)cc-3oc3cc(O)ccc23)c(C(=O)O)c1)NCCCCCCS[C@@H]1O[C@H](CO)[C@H](O)[C@H](O)[C@H]1O` [Gal-β S AH-FCHASE], the “product formation with sulfur as the linkage atom” value in series [5] was “product formation”.

Take `CC(=O)N[C@H]1[C@H]([C@H](O)[C@H](O)CO)OC(O)(C(=O)O)C[C@@H]1O` (some centres unmarked) [Neu5Ac, 5-N-acetylneuraminic acid]: the “time to complete conversion of the acceptor (FCHASE-LacNAc)” value in series [1] came out at 60 min.

Turning to `CC(=O)N[C@@H]1[C@@H](O)[C@H](O[C@@H]2O[C@H](CO)[C@H](O)[C@H](O)[C@H]2O)[C@@H](CO)O[C@H]1SCCCCCCNC(=O)CCCCCNC(=O)c1ccc(-c2c3ccc(=O)cc-3oc3cc(O)ccc23)c(C(=O)O)c1` [Gal-β-(1→4)-GlcNAc-β S AH-FCHASE], in series [5], the “product formation with sulfur as the linkage atom” value is “product formation”.
